Results on 4 molecules are retold here after patent publication US4933356A, “Diflunisal potentiation of acetazolamide in the control of intraocular pressure” (Cornell Research Foundation, Inc., priority 1988, dated 1990).

Series [1] is described as follows: Plasma concentration of acetazolamide (total and free) in glaucoma patients, before/after diflunisal. The class given is in vivo, human. The conditions noted are these: for concentration: 15 patients, read-out: total acetazolamide plasma level. Here is the method: (§1) In 15 acetazolamide-treated patients 2-3 cc of venous blood was drawn before and again, at the same time of day, after one week on diflunisal for determination of total plasma concentration of acetazolamide. The blood sample underwent centrifugation at 5000 rpm for 5 minutes, and the plasma was separated and refrigerated until analysis. In addition, the plasma of seven of these 15 acetazolamide-treated patients was subjected to dialysis for determination of binding to albumin.
A blood sample was also taken from six acetazolamide-treated patients twice at a one week interval without diflunisal treatment.
(§2) Acetazolamide was analyzed by assay against carbonic anhydrase (Maren, T. H., J. Pharmacol. Exp. Therap.. 130:26 (1960)). Dialysis was carried out in a specially constructed cell consisting of two chambers of 1 ml capacity separated by Spectra/Por membrane, MW cutoff 6,000-8,000, Spectrum Med. Industries. One ml plasma, after analysis for total drug, was introduced to one compartment and 1 ml physiological saline to the other. The solutions were each mixed for 18 hours at 25* and then analyzed and calculated for free and total drug.

A short description of series [2]: Plasma unbound acetazolamide in patients by dialysis, before/after diflunisal. The class given is in vitro ADME. The conditions noted are these: human, seven patients. As to the method:
as §1, §2

Series [3] has as its system glaucoma patients (intraocular pressure). Put plainly: Change in intraocular pressure (IOP) in glaucoma patients after one week of added diflunisal. The format is in vivo, human. The note with it: for Change in IOP following diflunisal treatment: Table I, mean ± SD; for effect of diflunisal on hypotensive action / IOP (in words): diflunisal added to stated drug.
Protocol: (§3) All subjects taking part in this study participated voluntarily and an informed consent was obtained from each prior to their enrollment in the study. Forty-eight glaucoma patients (19 men and 29 women) on maximally tolerated antiglaucoma medications were assigned consecutively to the study. […] All eyes were treated with at least one preparation of topical antiglaucoma medications; pilocarpine (60 eyes), epinephrine or dipivefrin hydrochloride (27 eyes), timolol, levobunolol or betaxolol (80 eyes), and echothiophate iodide (17 eyes). Upon entering the study each patient received a full ophthalmologic examination which included a visual acuity determination, slitlamp examination, IOP measurement (baseline) with a Goldmann applanation tonometer, gonioscopy, and a dilated fundus examination. Patients were instructed to take oral diflunisal, 500 mg, twice daily for one week, while their regular antiglaucoma medications remained unchanged. A week later patients were examined again for visual acuity, slit lamp examination, IOP measurement and a history of side effects. Baseline and follow-up IOP was measured by the same investigator using the same tonometer at approximately the same time of day.
Series [4] can be described thus: In vitro plasma binding of acetazolamide with graded concentrations of diflunisal (dialysis). The format is in vitro ADME. The conditions noted are these: human, 90 μM acetazolamide. Here is the method:
An in vitro study was performed for the effect of graded doses of diflunisal on the plasma binding of acetazolamide. Both drugs were added to plasma of a single non-glaucomatous individual and duplicate dialyses were done.
as §2
^a In Vitro plasma binding of 90 μM acetazolamide in a single
individual ([…]) following graded concentrations of diflunisal.

The test system of series [5] is glaucoma patients. Put plainly: Side effects in glaucoma patients after addition of diflunisal. The note with it: acetazolamide plus diflunisal; severe nausea and extreme confusion.
Protocol: as §3
Series [6] is described as follows: Plasma protein binding (background and discussion). The class given is in vitro ADME. The note with it: read-out: plasma albumin binding of acetazolamide (converted).
Series [7] deals with human plasma protein. The note with it: cited from earlier work.
The conditions of series [8]: cited from earlier work.
Series [9] relates to prostaglandin synthesis (cyclooxygenase). The note with it: at high doses; cited from earlier work.
The conditions of series [10]: in vivo; cited from earlier work.
Series [11] concerns normal volunteers (intraocular pressure). Description: Change in intraocular pressure in normal volunteers (control group) given diflunisal alone. The class given is in vivo, human. The conditions noted are these: normal controls. Here is the method:
Eight normal volunteers (52.3±16.4 years) on no medications participated in this study as a control group to study the ocular hypotensive effect of diflunisal itself and were given oral diflunisal, 500 mg, twice daily for one week. The examinations before and after diflunisal were similarly taken as glaucoma patients described above.

For series [12], the system named is plasma albumin / plasma protein. The conditions noted are these: cited from earlier work.
[13] abbreviates: diflunisal 500 mg oral twice daily, one week, added to stated antiglaucoma medication.

Values joined by “and” are separate entries in the source; they are usually repeats but may differ in a detail not shown here. Equal values may be shown once. “Also recorded” adds a separate entry of the source. Read-outs that look alike come from different tables or passages of the source.

Turning to `CC(=O)Nc1nnc(S(N)(=O)=O)s1` [Acetazolamide, 5-acetamido-1,3,4-thiadiazole-2-sulfonamide], the concentration in [1] (after one week on diflunisal, P<0.015 vs baseline) worked out at 31.8 ± 16.1 µM; in series [1] (baseline before diflunisal) it was 19.1 ± 9.1 µM. Further, in series [1] (addition of diflunisal), the “increase in free plasma levels of acetazolamide” value was 5.6 fold. In series [1] (addition of diflunisal), the “increase in total plasma levels of acetazolamide” value was roughly 50%. Further, the “free (unbound) acetazolamide plasma concentration” value in series [1] (after diflunisal) was 5.6 ± 4.1 µM and 5.6 µM; in [1] (before diflunisal) it was 1.0 ± 0.6 µM and 1.0 µM. In series [1] (six patients without additional diflunisal, P≥0.05), the “change in total acetazolamide plasma level over one week” value is given as “no significant change”. The results for the fraction unbound at 18 h in series [2] (after diflunisal) and in [2] (before diflunisal) were 0.162 ± 0.087 and 0.043 ± 0.027, respectively. In addition, in [3] (FIG. 1, after one week of diflunisal), the “relationship between daily dosage of acetazolamide and IOP reduction” value is “no relationship between the daily dosage of acetazolamide and the IOP reduction”. In addition, in [3] (setting [13]), the “Change in IOP following diflunisal treatment” value is reported as -3.8 ± 3.1 mm Hg. For the same molecule, in [3], the “effect of diflunisal on hypotensive action / IOP (in words)” value was “significant decrease in IOP”. The fraction unbound at 18 h, 90 µM in series [4] (diflunisal 0 μm) was determined as 0.07; in [4] (diflunisal 200 μm) it was 0.14; in series [4] (diflunisal 400 μm), 0.22; in [4] (diflunisal 600 μm) it was 0.26. In addition, the “patients dropped from study because of severe side effects” value in series [5] is “Two”. Moreover, the fraction unbound in series [6] (reduced by diflunisal) is roughly 0.2; in series [6] (without diflunisal), 0.03 to 0.07.
For the molecule `O=C(O)c1cc(-c2ccc(F)cc2F)ccc1O` [Diflunisal, 2-(hydroxy)-5-(2,4-difluorophenyl) benzoic acid], the “displacement of drugs from plasma protein” value was “can unbind partially bound compounds such as salicylic acid and phenprocoumin” in series [7]; “displace the following compounds from human plasma protein: salicylate and phenprocoumin” in series [7] (listed as diflunisal). In addition, the “time to steady state plasma levels” value in series [8] (500 mg twice daily) was 3 to 9 days. Moreover, the “time to peak plasma levels” value in series [8] (in vivo, po) is 2 to 3 h. The “absorption from the intestines” value in series [8] (in vivo) was “well absorbed from the intestines”. For the same molecule, the excretion entry in series [8] (in vivo) is listed as “excreted mostly in the urine as a glucuronide”. The “inhibition of prostaglandin synthesis” value in series [9] is reported as “inhibits prostaglandin synthesis”. For the same molecule, the “Change in IOP following diflunisal treatment” value in series [3] (diflunisal 500 mg twice daily, one week, topically treated only, n = 22 eyes) is reported as -0.7 ± 2.1 mm Hg; in series [11] (Table I, diflunisal alone 500 mg twice daily, one week, n = 16 eyes, mean ± SD), 0.0 ± 1.0 mm Hg. Further, the “change in IOP after diflunisal (in words)” value is on record as “no significant change in IOP; also recorded: did not result in a significant reduction of IOP” in [3] (patients on topical medications alone, plus diflunisal) and “no significant change in IOP; also recorded: did not result in a significant reduction of IOP” in series [11] (diflunisal alone). In addition, the “most frequent adverse reactions” value in series [10] was “nausea, gastrointestinal discomfort and diarrhea”. Besides, the tolerability versus aspirin entry in [10] is listed as “generally better tolerated than aspirin”.
On to `CC(=O)/N=c1/sc(S(N)(=O)=O)nn1C` [Methazolamide], for which the “Change in IOP following diflunisal treatment” value in series [3] (setting [13]) was -1.6 ± 1.5 mm Hg. The “mean reduction of IOP” value in series [3] (added diflunisal 500 mg twice daily, one week, vs baseline) was found to be 1.6±1.5 mm Hg. Further, the “effect of diflunisal on hypotensive action / IOP (in words)” value in series [3] is “did not result in a significant reduction of IOP; also recorded: did not affect the hypotensive action”. Further, the plasma protein binding in series [12] is recorded as 55%.
Regarding `O=C(O)c1ccccc1O` [Salicylate, salicylic acid], the “unbinding of acetazolamide from plasma proteins” value in series [7] is recorded as “unbind acetazolamide from plasma proteins”.
